Consider 19 compounds from patent US6538022B1, “Compounds for deactivating phospholamban function on Ca-ATPase (phopholamban inhibitors)” (Orion Corporation, priority 1997, dated 2003).

The test system of one assay is phospholamban. Kind of assay: Ca2+ uptake into SR vesicles prepared from cardiac tissue (fluo-3). In kind it is biochemical, guinea pig. To be noted: 0.1 μM free calcium. An excerpt:
(§1) Experiment 1. Effect on calcium uptake into the SR vesicles prepared from cardiac and fast skeletal muscle
(§2) Since phospholamban represses both the rates of relaxation and contraction in the mammalian heart through its inhibitory effects on the cardiac SR Ca^2+-ATPase, a compound relieving these effects is potentially useful in the treatment of heart failure.
(§3) Guinea pigs (10-12) were decapited. Their hearts or the psoas muscles were excised, washed in ice-cold 0.9% NaCl and cut into pieces in a buffer containing 20 mM Tris-maleate, 0.3 M sucrose, pH 7.0. Thereafter tissue pieces were homogenized with Polytron and further with Potter (10 strokes). The homogenate was centrifugated at 1000 g for 15 min at 4° C. The supernatant was collected and the pellet was resuspended into 5 ml of the buffer (20 mM Tris-maleate, 0.3 M sucrose, pH 7.0) and recentrifugated at 1000 g for 10 min at 4° C. The obtained supernatant was combined with the earlier collected supernatant and centrifugated once again at 10000 g for 20 min at 4° C. The final supernatant was filtered into a bottle equipped with a magnetic stirrer. KCl was added to the filtered supernatant to achieve the final concentration of 0.6 M (at 4° C.). The obtained solution was centrifugated at 100 000 g for 60 min at 4° C. The pellet was suspended in 5 ml of the buffer containing 20 mM Tris-maleate, 0.3 M sucrose, pH 7.0 and centrifugated at 100 000 g for 60 min at 4° C. The obtained pellet was suspended in 5 ml of buffer containing 20 mM Tris-maleate, 0.3 M sucrose, 0.1 M KCl, pH 7.0 and stored at −80° C. until use. The protein concentration was also measured in order to standardise the separately prepared vesicle preparations.
(§4) In the calcium uptake assay, the fluorescent indicator, fluo-3 was used to detect the decrease of the extravesicular Ca^2+-concentration, when the SR Ca^2+ATPase was transferring Ca^2+ from the extravesicular space into the SR-vesicles.
(§5) The SR-vesicles obtained above (50 μg protein/ml) were pre-incubated with or without the test compound at 37° C. for 5 min in the assay buffer containing 40 mM imidazole, 95 mM KCl, 5 mM NaN3, 5 mM MgCl2, 0.5 mM EGTA, 5 mM potassium oxalate, 2 μM ruthenium red, 5 μM fluo-3, pH 7.0. The free calcium was adjusted to 0.1 μM or to 0.04 μM by CaCl2. The reaction was initiated by adding ATP (5 mM). The final reaction volume was 1.5 ml. The fluorescence of reaction mixture was measured for 3 min by using the excitation and emission wavelengths of 510 nm and 530 nm, respectively.

A further assay concerns SR Ca^2+-ATPase. Kind of assay: Ca2+ uptake into SR vesicles prepared from fast skeletal muscle (psoas m.), which lack phospholamban (fluo-3). The assay is classed as biochemical, guinea pig. Particulars: 0.04 μM free calcium.
Excerpt: as §1, §2, §3, §4, §5

The subject of another assay is guinea-pig heart. In words: Left ventricular systolic pressure in isolated Langendorff-perfused heart. Particulars: Cavia porcellus; for Emax at 10 µM / Emax at 30 µM: read-out: maximum effect (% change from baseline) on left ventricular systolic pressure; for EC50: concentration range 0.3-30 μM. An excerpt:
Experiment 2. The effects on the left ventricular pressure derivatives
Guinea-pigs of either sex weighing 300-400 g were used in the study. After the guinea-pig was sacrificed by a blow on the skull and decapitated the heart was rapidly excised. The heart was then rinsed in cold oxygenated perfusion buffer. A cannula was inserted into the aorta and secured with a ligature. Retrograde perfusion began as soon as the heart was placed in a thermostatically controlled moist chamber of the Langendorff apparatus. Modified Tyrode solution (37° C.), equilibrated in a thermostatically controlled bulb oxygenator with carbogen (95% O2 and 5% CO2) was used as a perfusion buffer. The composition of the Tyrode solution was (in mM): NaCl 135; MgCl2×6H2O 1; KCl 5; CaCl2×2H2O 2; NaHCO3 15; Na2HPO4×2H2O 1; glucose 10; pH 7.3-7.4. The experiments were carried out under constant pressure condition (50 mmHg). After a short prestabilization (10 min) a latex balloon (size 4) was carefully placed into the left ventricle through the left pulmonary vein and the left atrium. The latex balloon was attached to a stainless-steel cannula coupled with a pressure transducer. The latex balloon, the cannula and the chamber of the pressure transducer were filled with ethylene glycol/water (1:1) mixture avoiding any air-bubble. The isovolumetric left ventricular pressure was recorded through the pressure transducer. At the beginning of the experiment, the volume of the balloon was adjusted to obtain a diastolic pressure of approximately 5 mmHg. Before starting the experiment, the heart was allowed to stabilise further for 30-50 min with vehicle (0.1% DMSO) in the perfusion buffer.
After 15 min baseline recording various concentrations of the test compound were added to the perfusion buffer at 15 min intervals. The concentration range of 0.3-30 μM was tested. The vehicle concentration (0.1% DMSO) was kept constant throughout the experiment.

Another assay concerns the target T1, PLB (Homo sapiens, UniProt P26678).
T1 sequence (P26678 1-52): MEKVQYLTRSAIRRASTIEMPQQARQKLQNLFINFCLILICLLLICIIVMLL
In words: Peptide screen for binding to PLB. An excerpt:
In order to find a lead molecule which would interact with PLB a series of peptides were screened. […] It was concluded that the cyclic peptide of formula (pI) binds to unphosphorylated PLB and prevents the inhibition exerted by PLB on SERCA—2 thus acting as a PLB deactivator. The cyclic peptide (pI) has the structure: [drawing 1]

One may read the EC50 as the concentration that produces a half-maximal response.

Bridges are numbered along the chain shown (N, C = ends). Where no end group is shown, it is not given here.

For the compound `Cc1c(Cc2ccccc2)c(=O)n(Cc2ccccc2)c2cc(OCc3nnn[nH]3)cc(OCc3nn[nH]n3)c12` [Example 8g, 5,7-Bis[(1H-tetrazol-5-yl)methoxy]-1,3-dibenzyl-4-methyl-2(1H)-quinolinone], the “The stimulation (%) of Ca^2+ uptake, A (ventricular myocardium vesicles)” value in the assay on phospholamban (10 μM compound) is on record as 18%. The “The stimulation (%) of Ca^2+ uptake, B (fast skeletal muscle vesicles)” value (“The stimulation (%) of Ca^2+ uptake, B” for short) in the assay with SR Ca^2+-ATPase (10 μM compound) came to 0%. In the assay on guinea-pig heart, the Emax at 10 µM was determined as 64% and the response was half-maximal at 2 µM (EC50).

With `Cc1c(Cc2ccccc2)c(=O)n(C)c2cc(OCc3nnn[nH]3)cc(OCc3nn[nH]n3)c12` [Example 9d, 5,7-Bis[(1H-tetrazol-5-yl)methoxy]-3-benzyl-1,4-dimethyl-2(1H)-quinolinone], in the assay on guinea-pig heart, the Emax at 30 µM was found to be 50% and the EC50 came out at 5 µM.

Regarding `Cc1c(Cc2ccccc2)c(=O)n(Cc2ccccc2)c2cc(OCC(=O)O)cc(OCC(=O)O)c12` [Example 12, 5,7-Bis(carboxymethoxy)-1,3-dibenzyl-4-methyl-2(1H)-quinolinone], in the assay on phospholamban (100 μM compound), the “The stimulation (%) of Ca^2+ uptake, A (ventricular myocardium vesicles)” value is 32%. In the assay with guinea-pig heart, the Emax at 10 µM stood at 22%.

For the compound `Cc1c(Cc2ccccc2)c(=O)oc2cc(OCc3noc(=O)[nH]3)cc(OCc3noc(=O)[nH]3)c12` [Example 3c, 3-Benzyl-5,7-bis[(2,5-dihydro-5-oxo-4H-1,2,4-oxadiazol-3-yl)-methoxy]-4-methyl-2H-1-benzopyran-2-one], the “The stimulation (%) of Ca^2+ uptake, A (ventricular myocardium vesicles)” value in the assay with phospholamban (20 μM compound) is 51%. In addition, in the assay with SR Ca^2+-ATPase (20 μM compound), the “The stimulation (%) of Ca^2+ uptake, B” value came out at 0%. Besides, in the assay on guinea-pig heart, the Emax at 10 µM is 63% and the response was half-maximal at 4 µM (EC50).

In the case of `Cc1c(Cc2ccccc2)c(=O)oc2cc(OC(C)c3nn[nH]n3)cc(OC(C)c3nn[nH]n3)c12` (centres unmarked) [Example 11b, 3-Benzyl-5,7-bis[1-(1H-tetrazol-5-yl)ethoxy]4-methyl-2 H-1-benzopyran-2-one], the “The stimulation (%) of Ca^2+ uptake, A (ventricular myocardium vesicles)” value with phospholamban (100 μM compound) is 28%.

On to `O=c1oc2cc(OCc3nn[nH]n3)cc(OCc3nn[nH]n3)c2c2c1C(c1ccccc1)CCC2` (centres unmarked) [Example 2c, 7,8,9,10-Tetrahydro-1,3-bis[(1H-tetrazol-5-yl)methoxy]-7-phenyl-6H-dibenzo[b,d]pyran-6-one], for which, in the assay on phospholamban (100 μM compound), the “The stimulation (%) of Ca^2+ uptake, A (ventricular myocardium vesicles)” value came to 26%. The “The stimulation (%) of Ca^2+ uptake, B” value in the assay on SR Ca^2+-ATPase (100 μM compound) is given as −1%.

In the case of `O=c1oc2cc(OCc3nn[nH]n3)cc(OCc3nn[nH]n3)c2c2c1CC(c1ccccc1)CC2` (centres unmarked) [Example 6c, 7,8,9,10-Tetrahydro-1,3-bis[(1H-tetrazol-5-yl)methoxy]-8-phenyl-6H-dibenzo[b,d]pyran-6-one], in the assay on guinea-pig heart, the Emax at 10 µM came to 25% and the midpoint of the response, the EC50, lay at 0.5 µM.

Regarding `Cc1c(Cc2ccc(Cl)cc2)c(=O)oc2cc(OCc3nn[nH]n3)cc(OCc3nn[nH]n3)c12` [Example 14c, 5,7-Bis[(1H-tetrazol-5-yl)methoxy]-3-(4-chlorobenzyl)-4-methyl-2H-1-benzopyran-2-one], the “The stimulation (%) of Ca^2+ uptake, A (ventricular myocardium vesicles)” value with phospholamban (10 μM compound) stood at 18%. Besides, the Emax at 10 µM in the assay with guinea-pig heart turned out to be 25%.

With `Cc1c(CCc2ccccc2)c(=O)oc2cc(OCc3nn[nH]n3)cc(OCc3nn[nH]n3)c12` [Example 7c, 5,7-Bis[(1H-tetrazol-5-yl)methoxy]-4-methyl-3-(2-phenylethyl)-2H-1benzopyran-2-one], the “The stimulation (%) of Ca^2+ uptake, A (ventricular myocardium vesicles)” value in the assay with phospholamban (100 μM compound) worked out at 5%. The “The stimulation (%) of Ca^2+ uptake, B” value in the assay on SR Ca^2+-ATPase (100 μM compound) was −17%. In the assay with guinea-pig heart, the Emax at 10 µM is 29% and a half-maximal response (EC50) required 2.5 µM.

Turning to “cP226: cyclic peptide of formula (pI) wherein X is Tyr; linear CYWELEWLPCA cyclized by intramolecular disulphide bridge; PLB deactivator (disulfide 1-10 (inferred))”, the “binding to PLB” value with PLB is “binds to the ligand binding site of phospholamban”.

As for `Cc1c(Cc2ccccc2)c(=O)n(Cc2ccccc2)c2cc(OCC(N)=O)cc(OCC(N)=O)c12` [Example 21, 5,7-Bis(aminocarbonylmethoxy)-1,3-dibenzyl-4-methyl-2(1H)-quinolinone], the “The stimulation (%) of Ca^2+ uptake, A (ventricular myocardium vesicles)” value in the assay on phospholamban (100 μM compound) was 11%.

For the compound `O=c1cc(-c2ccccc2)c2c(OCc3nn[nH]n3)cc(OCc3nn[nH]n3)cc2o1` [Example 5c, 5,7-Bis[(1H-tetrazol-5-yl)methoxy]-4-phenyl-2H-1-benzopyran-2-one], the Emax at 30 µM with guinea-pig heart worked out at 14%.

Take `Cc1c(Cc2ccccc2)c(=O)n(Cc2ccccc2)c2cc(OCC(=O)NO)cc(OCC(=O)NO)c12` [Example 23, 5,7-Bis(hydroxyaminocarbonylmethoxy)-1,3-dibenzyl-4-methyl-2(1H)-quinolinone]: in the assay on phospholamban (5 μM compound), the “The stimulation (%) of Ca^2+ uptake, A (ventricular myocardium vesicles)” value turned out to be 20%.

For `Cc1cc(=O)n(Cc2ccccc2)c2cc(OCc3nnn[nH]3)cc(OCc3nnn[nH]3)c12` [Example 18e, 1-Benzyl-5,7-bis-[(1H-tetrazol-5-yl)methoxy]-4-methyl-2(1H)-quinolinone], the “The stimulation (%) of Ca^2+ uptake, A (ventricular myocardium vesicles)” value with phospholamban (100 μM compound) came to 13%. Further, in the assay on guinea-pig heart, the Emax at 30 µM was 35% and the EC50 came to 10 µM.

Turning to `Cc1c(Cc2ccc([N+](=O)[O-])cc2)c(=O)oc2cc(OCc3nn[nH]n3)cc(OCc3nn[nH]n3)c12` [Example 15c, 5,7-Bis[(1H-tetrazol-5-yl)methoxy]-3-(4-nitrobenzyl)-4-methyl-2H-1-benzopyran-2-one], in the assay with guinea-pig heart, the Emax at 10 µM amounted to 37% and the EC50 stood at 3 µM.

With `Cc1c(Cc2ccccc2)c(=O)n(Cc2ccc(F)cc2)c2cc(OCc3nn[nH]n3)cc(OCc3nn[nH]n3)c12` [Example 13d, 3-Benzyl-5,7-Bis[(1H-tetrazol-5-yl)methoxy]-1-(4-fluorobenzyl)-4-methyl-2(1H)-quinolinone], the “The stimulation (%) of Ca^2+ uptake, A (ventricular myocardium vesicles)” value with phospholamban (50 μM compound) worked out at 23%. Moreover, in the assay with guinea-pig heart, the Emax at 30 µM was 48% and the EC50 is 10 µM.

In the case of `Cc1c(Cc2ccccc2)c(=O)oc2cc(OCc3nn[nH]n3)cc(OCc3nn[nH]n3)c12` [Example 1c, 3-Benzyl-5,7-bis[(1H-tetrazol-5-yl)methoxy]-4-methyl-2H-1-benzopyran-2-one], in the assay with guinea-pig heart, the Emax at 30 µM is 52% and a half-maximal effect (EC50) was put at 9 µM.

Consider `Cc1c(C2CCCC2)c(=O)oc2cc(OCc3nn[nH]n3)cc(OCc3nn[nH]n3)c12` [Example 16c, 5,7-Bis[(1H-tetrazol-5-yl)methoxy]-3-cyclopentyl-4-methyl-2H-1-benzopyran-2-one], for which, in the assay with guinea-pig heart, the Emax at 30 µM is 57% and the response was half-maximal at 10 µM (EC50).

Consider `Cc1c(Cc2ccccc2F)c(=O)n(Cc2ccccc2)c2cc(OCc3nnn[nH]3)cc(OCc3nnn[nH]3)c12` [Example 19e], for which, in the assay on guinea-pig heart, the Emax at 30 µM was found to be 39% and a half-maximal response (EC50) required 6 µM.
